Assay results taken from patent publication US9943537B2, “Antitumor agent and antitumor effect enhancer” (TAIHO PHARMACEUTICAL CO., LTD., priority 2013, dated 2018).

How the values were obtained:
[1] = system: human colon cancer cell line (KM20C); assay: KM20C xenograft in nude mice, relative tumor volume; FTD/TPI oral Days 1 to 14, bevacizumab into abdominal cavity twice a week for two weeks; format: in vivo
Protocol: (§1) A human colon cancer cell line (KM20C) was transplanted onto the right chest of a five to six week-old BALB/cA Jcl-nu mouse. The length (mm) and the breadth (mm) of the tumor after the tumor transplantation were measured, and the tumor volume (TV) was calculated. Then, the mouse was allocated into each group such that the average TV in each group was equal, and the day when the grouping (n=6 to 7) was implemented was assumed to be Day 0.
(§2) The administration dose of the drug was 10 mL/kg, and the FTD/TPI combination drug (a mixture of FTD and TPI at a molar ratio of 1:0.5) was prepared to be 150 mg/kg/day as the dose of FTD.
(§3) As an index of the antitumor effect, the TV in each group was calculated, and the relative tumor volume (RTV) for Day 0 was obtained from the equation below and plotted. The chronological changes of RTV were compared among no treatment group (control), an FTD/TPI combination drug-treated group, a bevacizumab-treated group, and a FTD/TPI combination drug and bevacizumab combination-treated group. In addition, the weight loss as the toxicity was evaluated. TV(mm^3)=(length×breadth^2)/2 RTV=(TV on evaluation day)/(TV on Day 0)

[2] = Body weight change of KM20C-bearing nude mice (toxicity); format: in vivo, mouse
Protocol: as §1, §2
As an index of the antitumor effect, the TV in each group was calculated, and the relative tumor volume (RTV) for Day 0 was obtained from the equation below and plotted. […] In addition, the weight loss as the toxicity was evaluated. TV(mm^3)=(length×breadth^2)/2 RTV=(TV on evaluation day)/(TV on Day 0)

[3] = system: human breast cancer cell line (MC-2); assay: MC-2 xenograft in nude mice, relative tumor volume and days till RTV reached 2; FTD/TPI and bevacizumab; format: in vivo
Protocol: as §1, §3
(§4) Next, a test was performed in the same manner using a human breast cancer cell line (MC-2).
With respect to the time period during which the tumor volume doubled from Day 0 (namely, RTV becomes 2), the results of the combination-treated group were predicted from the single agent-treated group of FIGS. 5 and 6. The “length of days till RTV actually reached 2” was calculated under the assumption that RTV on the measurement day when RTV firstly exceeded 2 changes according to a linear function from RTV on the measurement day immediately before the day.

[4] = Body weight change of MC-2-bearing nude mice (toxicity); format: in vivo, mouse; conditions: MC-2, Day 15, dose 1.5 mg/kg/day
Protocol: as §1, §3, §4

[5] = system: human colon cancer cell line (Co-3); assay: Co-3 xenograft in nude mice, relative tumor volume; FTD/TPI oral Days 1 to 14, panitumumab into abdominal cavity twice a week for two weeks; format: in vivo
Protocol: as §1, with “(Co-3)” for “(KM20C)”, “(n=6)” for “(n=6 to 7)”
(§5) The administration dose of the drug was 10 mL/kg, and the FTD/TPI combination drug (a mixture of FTD and TPI at the molar ratio of 1:0.5) was prepared to be 150 mg/kg/day as the dose of FTD. Panitumumab (Vectibix (registered trademark) injection, Amgen Inc.) was prepared to be 0.30, 0.89, 2.7 and 8 mg/kg/day. The FTD/TPI combination drug was orally administered on Days 1 to 14 every day, and panitumumab was administered into the abdominal cavity for two weeks at a frequency of twice a week from Day 1. To the combination-treated group, the FTD/TPI combination drug and panitumumab were administered in the same doses and the same administration schedules as those of the single agent-treated group.
[…] The chronological changes of RTV were compared of no treatment group (control), the FTD/TPI combination drug-treated group, the panitumumab-treated group and the combination FTD/TPI combination drug and panitumumab treated group. In addition, the weight loss as the toxicity was evaluated.

[6] = Body weight change of Co-3-bearing nude mice, panitumumab study (toxicity); format: in vivo, mouse
Protocol: as §1, with “(Co-3)” for “(KM20C)”, “(n=6)” for “(n=6 to 7)”
as §5
As an index of the antitumor effect, TV on Days 5, 8, 12 and 15 was calculated in each group, and the relative tumor volume (RTV) for Day 0 was obtained according to the formula of Example 1 and plotted. The chronological changes of RTV were compared of no treatment group (control), the FTD/TPI combination drug-treated group, the panitumumab-treated group and the combination FTD/TPI combination drug and panitumumab treated group. In addition, the weight loss as the toxicity was evaluated.

[7] = MC-2, Day 15, dose 1.5 mg/kg/day
[8] = Co-3, Day 29, dose 0.30 mg/kg/day
[9] = Co-3, Day 29, dose 0.89 mg/kg/day
[10] = Co-3, Day 29, dose 2.7 mg/kg/day

Bevacizumab: anti-VEGF humanized monoclonal antibody (Avastin injection, Chugai Pharmaceutical Co., Ltd.)
IR (%) tumor growth inhibition rate ([1]; Day 29, dose 0.20 mg/kg/day): 34.3% | RTV (mean ± SD) ([1]; Day 29, dose 0.20 mg/kg/day): 8.93 ± 2.79 | IR (%) tumor growth inhibition rate ([1]; Day 29, dose 0.55 mg/kg/day): 28.5% | RTV (mean ± SD) ([1]; Day 29, dose 0.55 mg/kg/day): 9.71 ± 4.99 | IR (%) tumor growth inhibition rate ([1]; Day 29, dose 1.7 mg/kg/day): 39.7% | RTV (mean ± SD) ([1]; Day 29, dose 1.7 mg/kg/day): 8.19 ± 2.29 | IR (%) tumor growth inhibition rate ([1]; Day 29, dose 5 mg/kg/day): 38.6% | RTV (mean ± SD) ([1]; Day 29, dose 5 mg/kg/day): 8.34 ± 1.82 | Body weight change (%, mean ± SD) ([2]; Day 29, dose 0.20 mg/kg/day): 9.7 ± 5.1% | Body weight change (%, mean ± SD) ([2]; Day 29, dose 0.55 mg/kg/day): 3.2 ± 6.0% | Body weight change (%, mean ± SD) ([2]; Day 29, dose 1.7 mg/kg/day): 5.2 ± 6.7% | IR (%) tumor growth inhibition rate [3, 7]: 41.1% | RTV (mean ± SD) [3, 7]: 3.06 ± 0.88 | Length of Days (day) till RTV actually reached 2 ([3]; MC-2, single agent, bevacizumab 1.5 mg/kg/day): 7.71 days | Body weight change (%, mean ± SD) [4]: 7.7 ± 3.7%

Panitumumab: anti-EGFR human-type fully monoclonal antibody (Vectibix injection, Amgen Inc.)
IR (%) tumor growth inhibition rate [5, 8]: 23.0% | RTV (mean ± SD) [5, 8]: 18.15 ± 6.79 | IR (%) tumor growth inhibition rate [5, 9]: 35.9% | RTV (mean ± SD) [5, 9]: 15.10 ± 7.51 | IR (%) tumor growth inhibition rate [5, 10]: 46.1% | RTV (mean ± SD) [5, 10]: 12.71 ± 4.37 | IR (%) tumor growth inhibition rate ([5]; Co-3, Day 29, dose 8 mg/kg/day): 45.0% | RTV (mean ± SD) ([5]; Co-3, Day 29, dose 8 mg/kg/day): 12.97 ± 2.33 | Body weight change (%, mean ± SD) [6, 8]: −11.3 ± 5.3% | Body weight change (%, mean ± SD) [6, 9]: −6.7 ± 4.3% | Body weight change (%, mean ± SD) [6, 10]: −1.2 ± 3.1% | Body weight change (%, mean ± SD) ([6]; Co-3, Day 29, dose 8 mg/kg/day): −4.5 ± 4.5%
